# Source: patent US8952024B2, “Herbicidal pyrimidone derivatives” (E I du Pont de Nemours and Company, priority 2009, dated 2015)
# Experiments:
# Assay in all cases: Test D pre-/postemergence plant response
# Assay type in all cases: in vivo
# [1] = tested on: ragweed (common ragweed, Ambrosia elatior)
# Procedure, shortened: (§1)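 Pre + post applications; loam/sand soil; solvent + surfactant vehicle; post-em plants 1- to 4-leaf (2–18 cm); greenhouse 14–21 d; visual score 0 (none) to 100 (full control) vs untreated.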
# [2] = tested on: johnsongrass (Sorghum halepense)
# Procedure, shortened: as §1
# [3] = tested on: nutsedge (purple nutsedge, Cyperus rotundus)
# Procedure, shortened: as §1
# [4] = tested on: bluegrass (annual bluegrass, Poa annua)
# Procedure, shortened: as §1
# [5] = tested on: green foxtail (Setaria viridis)
# Procedure, shortened: as §1
# [6] = tested on: dallisgrass (Paspalum dilatatum)
# Procedure, shortened: as §1
# [7] = tested on: morningglory (pitted morningglory, Ipomoea lacunosa)
# Procedure, shortened: as §1
# [8] = tested on: barnyardgrass (Echinochloa crus-galli)
# Procedure, shortened: as §1
# [9] = tested on: goosegrass (Eleusine indica)
# Procedure, shortened: as §1
# [10] = tested on: purslane (common purslane, Portulaca oleracea)
# Procedure, shortened: as §1
# [11] = tested on: sowthistle (common sowthistle, Sonchus oleraceous)
# Procedure, shortened: as §1
# [12] = tested on: large crabgrass (Digitaria sanguinalis)
# Procedure, shortened: as §1
# kochia (Kochia scoparia) = tested on: kochia (Kochia scoparia)
# Procedure, shortened: as §1
# [13] = tested on: itchgrass (Rottboellia cochinchinensis)
# Procedure, shortened: as §1
# [14] = tested on: chickweed (common chickweed, Stellaria media); settings: Postemergence, 31 g ai/ha; scale 0 to 100
# Procedure, shortened: as §1
# [15] = tested on: prickly sida (Sida spinosa)
# Procedure, shortened: as §1
# [16] = Postemergence, 16 g ai/ha, scale 0 to 100
# [17] = Postemergence, 31 g ai/ha, scale 0 to 100
# [18] = Postemergence, 125 g ai/ha, scale 0 to 100 (0 no effect, 100 complete control)
# [19] = Postemergence, 62 g ai/ha, scale 0 to 100 (0 no effect, 100 complete control)
# [20] = Preemergence, 16 g ai/ha, scale 0 to 100, 0 no effect, 100 complete control
# [21] = Preemergence, 31 g ai/ha, scale 0 to 100 (0 no effect, 100 complete control)
# [22] = Preemergence, 125 g ai/ha, scale 0 to 100
# [23] = Preemergence, 62 g ai/ha, scale 0 to 100
# [24] = Postemergence, 31 g ai/ha, scale 0 to 100 (0 no effect, 100 complete control)
smiles,measurement,setting,value
"O=C1CCCC(O)=C1C(=O)c1cnc(-c2cccnc2)n(-c2ccccc2)c1=O [Compound 113, 5-[(2-hydroxy-6-oxo-1-cyclohexen-1-yl)carbonyl]-3-phenyl-2-(3-pyridinyl)-4(3H)-pyrimidone]","Plant response rating, Ragweed",[1]; [16],70
same,"Plant response rating, Ragweed",[1]; [17],70
same,"Plant response rating, Ragweed",[1]; [18],80
same,"Plant response rating, Ragweed",[1]; [19],75
same,"Plant response rating, Ragweed",[1]; [20],0
same,"Plant response rating, Ragweed",[1]; [21],50
same,"Plant response rating, Ragweed",[1]; [22],98
same,"Plant response rating, Johnsongrass",[2]; [16],40
same,"Plant response rating, Johnsongrass",[2]; [17],40
same,"Plant response rating, Johnsongrass",[2]; [18],75
same,"Plant response rating, Johnsongrass",[2]; [19],65
same,"Plant response rating, Johnsongrass",[2]; [20],0
same,"Plant response rating, Johnsongrass",[2]; [21],0
same,"Plant response rating, Johnsongrass",[2]; [23],10
same,"Plant response rating, Johnsongrass",[2]; [22],10
same,"Plant response rating, Nutsedge, Purple",[3]; [16],0
same,"Plant response rating, Nutsedge, Purple",[3]; [17],10
same,"Plant response rating, Nutsedge, Purple",[3]; [18],50
same,"Plant response rating, Nutsedge, Purple",[3]; [19],35
same,"Plant response rating, Nutsedge, Purple",[3]; [20],0
same,"Plant response rating, Nutsedge, Purple",[3]; [21],10
same,"Plant response rating, Nutsedge, Purple",[3]; [23],20
same,"Plant response rating, Nutsedge, Purple",[3]; [22],80
same,"Plant response rating, Bluegrass",[4]; [16],0
same,"Plant response rating, Bluegrass",[4]; [24],0
same,"Plant response rating, Bluegrass",[4]; [18],0
same,"Plant response rating, Bluegrass",[4]; [19],0
same,"Plant response rating, Bluegrass",[4]; [20],0
same,"Plant response rating, Bluegrass",[4]; [21],0
same,"Plant response rating, Bluegrass",[4]; [23],0
same,"Plant response rating, Bluegrass",[4]; [22],0
same,"Plant response rating, Foxtail, Green",[5]; [16],25
same,"Plant response rating, Foxtail, Green",[5]; [17],60
same,"Plant response rating, Foxtail, Green",[5]; [18],90
same,"Plant response rating, Foxtail, Green",[5]; [19],70
same,"Plant response rating, Foxtail, Green",[5]; [20],0
same,"Plant response rating, Foxtail, Green",[5]; [21],0
same,"Plant response rating, Foxtail, Green",[5]; [23],0
same,"Plant response rating, Foxtail, Green",[5]; [22],20
same,"Plant response rating, Dallisgrass",[6]; [16],10
same,"Plant response rating, Dallisgrass",[6]; [17],10
same,"Plant response rating, Dallisgrass",[6]; [18],70
same,"Plant response rating, Dallisgrass",[6]; [19],60
same,"Plant response rating, Dallisgrass",[6]; [20],5
same,"Plant response rating, Dallisgrass",[6]; [21],50
same,"Plant response rating, Dallisgrass",[6]; [23],50
same,"Plant response rating, Dallisgrass",[6]; [22],100
same,"Plant response rating, Morningglory",[7]; [16],50
same,"Plant response rating, Morningglory",[7]; [17],60
same,"Plant response rating, Morningglory",[7]; [18],90
same,"Plant response rating, Morningglory",[7]; [19],90
same,"Plant response rating, Morningglory",[7]; [20],60
same,"Plant response rating, Morningglory",[7]; [21],60
same,"Plant response rating, Morningglory",[7]; [23],60
same,"Plant response rating, Morningglory",[7]; [22],90
same,"Plant response rating, Barnyardgrass",[8]; [16],65
same,"Plant response rating, Barnyardgrass",[8]; [24],75
same,"Plant response rating, Barnyardgrass",[8]; [18],80
same,"Plant response rating, Barnyardgrass",[8]; [19],80
same,"Plant response rating, Barnyardgrass",[8]; [20],0
same,"Plant response rating, Barnyardgrass",[8]; [21],0
same,"Plant response rating, Barnyardgrass",[8]; [23],0
same,"Plant response rating, Barnyardgrass",[8]; [22],35
same,"Plant response rating, Goosegrass",[9]; [16],40
same,"Plant response rating, Goosegrass",[9]; [17],50
same,"Plant response rating, Goosegrass",[9]; [18],65
same,"Plant response rating, Goosegrass",[9]; [19],65
same,"Plant response rating, Goosegrass",[9]; [20],25
same,"Plant response rating, Goosegrass",[9]; [21],25
same,"Plant response rating, Goosegrass",[9]; [23],75
same,"Plant response rating, Goosegrass",[9]; [22],95
same,"Plant response rating, Purslane",[10]; [16],30
same,"Plant response rating, Purslane",[10]; [17],30
same,"Plant response rating, Purslane",[10]; [18],75
same,"Plant response rating, Purslane",[10]; [19],50
same,"Plant response rating, Purslane",[10]; [20],90
same,"Plant response rating, Purslane",[10]; [21],100
same,"Plant response rating, Purslane",[10]; [23],100
same,"Plant response rating, Purslane",[10]; [22],100
same,"Plant response rating, Sowthistle",[11]; [16],90
same,"Plant response rating, Sowthistle",[11]; [17],95
same,"Plant response rating, Sowthistle",[11]; [18],100
same,"Plant response rating, Sowthistle",[11]; [19],100
same,"Plant response rating, Sowthistle",[11]; [20],50
same,"Plant response rating, Sowthistle",[11]; [21],75
same,"Plant response rating, Sowthistle",[11]; [22],100
same,"Plant response rating, Crabgrass, Large",[12]; [16],60
same,"Plant response rating, Crabgrass, Large",[12]; [17],60
same,"Plant response rating, Crabgrass, Large",[12]; [18],70
same,"Plant response rating, Crabgrass, Large",[12]; [19],70
same,"Plant response rating, Crabgrass, Large",[12]; [20],20
same,"Plant response rating, Crabgrass, Large",[12]; [21],30
same,"Plant response rating, Crabgrass, Large",[12]; [23],95
same,"Plant response rating, Crabgrass, Large",[12]; [22],95
same,"Plant response rating, Kochia",kochia (Kochia scoparia); [16],25
same,"Plant response rating, Kochia",kochia (Kochia scoparia); [17],40
same,"Plant response rating, Kochia",kochia (Kochia scoparia); [18],50
same,"Plant response rating, Kochia",kochia (Kochia scoparia); [19],50
same,"Plant response rating, Kochia",kochia (Kochia scoparia); [21],70
same,"Plant response rating, Kochia",kochia (Kochia scoparia); [23],100
same,"Plant response rating, Kochia",kochia (Kochia scoparia); [22],100
same,"Plant response rating, Itchgrass",[13]; [16],0
same,"Plant response rating, Itchgrass",[13]; [17],10
same,"Plant response rating, Itchgrass",[13]; [18],70
same,"Plant response rating, Itchgrass",[13]; [19],65
same,"Plant response rating, Itchgrass",[13]; [20],0
same,"Plant response rating, Itchgrass",[13]; [21],0
same,"Plant response rating, Itchgrass",[13]; [23],0
same,"Plant response rating, Itchgrass",[13]; [22],0
same,"Plant response rating, Chickweed",[14],70
same,"Plant response rating, Prickly Sida",[15]; [16],50
same,"Plant response rating, Prickly Sida",[15]; [17],60
same,"Plant response rating, Prickly Sida",[15]; [18],70
same,"Plant response rating, Prickly Sida",[15]; [19],70
same,"Plant response rating, Prickly Sida",[15]; [20],0
same,"Plant response rating, Prickly Sida",[15]; [21],35
same,"Plant response rating, Prickly Sida",[15]; [23],70
same,"Plant response rating, Prickly Sida",[15]; [22],90
